Here are results for 20 compounds from PubChem BioAssay (NCI).

Some test systems named below: MDA-MB-435; KM12 colon; RXF 393 renal; M14 melanoma; UO-31 renal; NCI/ADR-RES ovarian; MDA-N; COLO 205 colon; SNB-75 CNS; HCC-2998 colon.
Experiment in all cases: NCI-60 cell line screen, 48 h

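Tested at 5 concentrations; 48 h exposure; 96-well plates; endpoints linearly interpolated, else capped at highest concentration. GI50 = concentration required for 50% inhibition of growth. TGI: total growth inhibition.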

With `COc1ccc(-n2c3c(c4cc(O)ccc42)Cc2ccccc2C3=O)cc1`, the TGI in the experiment with MDA-MB-435 was more than 100 µM; in the experiment with KM12 colon, more than 100 µM; in the experiment on RXF 393 renal, 9.38 µM; with M14 melanoma it was more than 100 µM; in the experiment with UO-31 renal it was more than 100 µM; in the experiment on NCI/ADR-RES ovarian it was more than 100 µM. Further, the TGI in the experiment on MDA-N was more than 100 µM; in the experiment with COLO 205 colon it was 51 µM; in the experiment with SNB-75 CNS, 31.9 µM.
As for `CCOCC(=O)N(C)c1cccc2c3c(n(C)c12)CCCCC3`, the TGI in the experiment with KM12 colon, in the experiment on RXF 393 renal, in the experiment with HCC-2998 colon, with NCI/ADR-RES ovarian, with COLO 205 colon and with SNB-75 CNS was more than 100 µM each time.
Regarding `CC1C(=O)c2cc3c(cc2CCN(C)Cc2c1ccc1c2OCO1)OCO3` (stereo not given), the GI50 in the experiment on MDA-MB-435 was 47.7 µg/mL; in the experiment on KM12 colon, 59 µg/mL; in the experiment with RXF 393 renal, 13.1 µg/mL; with M14 melanoma, 43.6 µg/mL; in the experiment with HCC-2998 colon, 14.1 µg/mL; with NCI/ADR-RES ovarian, 58.3 µg/mL. Further, the values for the GI50 in the experiment with MDA-N, with COLO 205 colon and with SNB-75 CNS were more than 75 µg/mL, 26.2 µg/mL and more than 75 µg/mL, respectively. The TGI in the experiment on MDA-MB-435 is more than 75 µg/mL; in the experiment on KM12 colon it was more than 75 µg/mL; with RXF 393 renal it was 68.3 µg/mL; in the experiment on M14 melanoma, more than 75 µg/mL; in the experiment on HCC-2998 colon it was 33.5 µg/mL; in the experiment with NCI/ADR-RES ovarian it was more than 75 µg/mL. In addition, the TGI in the experiment with MDA-N, in the experiment on COLO 205 colon and in the experiment with SNB-75 CNS was more than 75 µg/mL in each case.
For the compound `Cc1oc(N)c(S(=O)(=O)c2cc3ccccc3n(O)c2=N)c1C`, the TGI in the experiment with MDA-MB-435, with KM12 colon, with M14 melanoma, with HCC-2998 colon, with UO-31 renal and with NCI/ADR-RES ovarian was more than 100 µM throughout. In addition, the TGI with MDA-N, with COLO 205 colon and in the experiment with SNB-75 CNS was more than 100 µM each time.
Consider `CCOC(=O)c1c(-c2cccc(Cl)c2)c(C(=O)OC)c(C)c2sc(C=O)nc12`, for which the TGI with MDA-MB-435 came out at 38.7 µM; in the experiment with KM12 colon, 37.8 µM; in the experiment on RXF 393 renal, 44.6 µM; with M14 melanoma, 31.4 µM; with UO-31 renal, 37.8 µM; with NCI/ADR-RES ovarian it was 68.5 µM. The TGI in the experiment with MDA-N is 56.7 µM; with COLO 205 colon, 34.4 µM; in the experiment with SNB-75 CNS it was more than 100 µM.
As to `CN(C)C(=O)OC1=CC2CCC(C1)N2C` (stereo not given), the TGI with MDA-MB-435, in the experiment on KM12 colon, in the experiment with RXF 393 renal, in the experiment with M14 melanoma, in the experiment on UO-31 renal and in the experiment on NCI/ADR-RES ovarian was more than 100 µM in each case. For the same compound, the TGI in the experiment with MDA-N, in the experiment with COLO 205 colon and in the experiment on SNB-75 CNS was more than 100 µM in each case.
Turning to `O=C1/C(=C/c2[nH]ncc2-c2ccc(Cl)cc2)C(=O)N(c2ccccc2)C1c1ccccc1` (stereo not given), the TGI in the experiment on MDA-MB-435 was 35.5 µM; with KM12 colon, 79.5 µM; in the experiment on RXF 393 renal, 49.4 µM; with M14 melanoma, 26 µM; in the experiment on UO-31 renal, 58.7 µM; in the experiment on NCI/ADR-RES ovarian, more than 100 µM. Moreover, the TGI with MDA-N is 36.9 µM; in the experiment with COLO 205 colon, 32.8 µM.
As to `Cc1n[n+]([O-])c(C)cc1[N+](=O)[O-]`, the TGI stood at 29 µM in the experiment with MDA-MB-435; 66.3 µM in the experiment on RXF 393 renal; 30.7 µM with M14 melanoma; 25 µM in the experiment with HCC-2998 colon; 29.7 µM in the experiment with UO-31 renal; 42.1 µM in the experiment with NCI/ADR-RES ovarian. Moreover, the TGI in the experiment with COLO 205 colon stood at 26.3 µM; with SNB-75 CNS it was 54 µM.
`COC(=O)c1cc(NC(=O)c2cc(NC(=O)Cc3c[nH]c4ccccc34)cn2C)cn1C`: the TGI in the experiment with MDA-MB-435 was more than 100 µM; with KM12 colon it was more than 100 µM; in the experiment on RXF 393 renal, more than 100 µM; with M14 melanoma, more than 100 µM; in the experiment on UO-31 renal, 85.2 µM; in the experiment on NCI/ADR-RES ovarian, more than 100 µM. Moreover, the TGI in the experiment on MDA-N is more than 100 µM; in the experiment on COLO 205 colon, 76.3 µM; in the experiment on SNB-75 CNS, 92.9 µM.
On to `O=C(Cc1csc2nc(-c3ccc(Cl)cc3)cn12)N/N=C/c1ccccc1O`, for which the GI50 in the experiment on MDA-MB-435 was 6.1 µM; with KM12 colon it was 2.81 µM; in the experiment on RXF 393 renal it was 2.69 µM; in the experiment on HCC-2998 colon, 2.4 µM; with UO-31 renal it was 0.504 µM; in the experiment on NCI/ADR-RES ovarian, 2.6 µM. Besides, the GI50 in the experiment with COLO 205 colon is 2.93 µM; with SNB-75 CNS, 4.32 µM. Besides, the TGI with MDA-MB-435 was more than 100 µM; in the experiment on KM12 colon, more than 100 µM; in the experiment on RXF 393 renal, 39.8 µM; with HCC-2998 colon, more than 100 µM; in the experiment on UO-31 renal, 43.9 µM; with NCI/ADR-RES ovarian, 81.8 µM. Also, the TGI in the experiment on COLO 205 colon and with SNB-75 CNS was more than 100 µM throughout.
In the case of `N#Cc1ccccc1C#C/C=C\C#Cc1ccccc1N`, the GI50 was 1.34 µM with MDA-MB-435; 2.55 µM in the experiment on KM12 colon; 7 µM in the experiment with RXF 393 renal; 0.243 µM in the experiment on M14 melanoma; 0.808 µM with HCC-2998 colon; 4.79 µM with UO-31 renal. The GI50 with NCI/ADR-RES ovarian was 2.44 µM; in the experiment on COLO 205 colon, 4.8 µM; in the experiment with SNB-75 CNS, 6.13 µM. Further, the TGI is 3.21 µM with MDA-MB-435; more than 51.3 µM in the experiment with KM12 colon; more than 23.7 µM in the experiment on RXF 393 renal; 11.3 µM with M14 melanoma; 4.11 µM in the experiment on HCC-2998 colon; more than 25.7 µM in the experiment on UO-31 renal. The TGI is 29.2 µM in the experiment on NCI/ADR-RES ovarian, more than 100 µM in the experiment with COLO 205 colon and more than 25.3 µM in the experiment with SNB-75 CNS.
`O=C(CC(c1ccccc1)C1C(=O)NC(=S)NC1=O)c1ccc([N+](=O)[O-])cc1` (stereo not given): the TGI in the experiment on MDA-MB-435, with KM12 colon, in the experiment with M14 melanoma, in the experiment with HCC-2998 colon, in the experiment on UO-31 renal and in the experiment with NCI/ADR-RES ovarian was more than 100 µM throughout. The TGI with MDA-N, in the experiment with COLO 205 colon and in the experiment on SNB-75 CNS was more than 100 µM in each case.
On to `Cn1c2[n+](c3nc(N)[nH]c(=O)c31)C1OC(C2)C(O)C1O` (stereo not given), for which the TGI in the experiment on KM12 colon, in the experiment on RXF 393 renal, with M14 melanoma, in the experiment with HCC-2998 colon, in the experiment on UO-31 renal and with COLO 205 colon was more than 100 µM in each case. In the experiment on SNB-75 CNS, the TGI is more than 100 µM.
For the compound `COc1cccc(/C=N/[N-]C(N)=O)c1[O-].[Ni+2].[OH3+]`, the TGI is 0.91 µM with KM12 colon; 0.8 µM with RXF 393 renal; 2.08 µM in the experiment on M14 melanoma; 1.02 µM in the experiment on HCC-2998 colon; 2.09 µM with UO-31 renal; 0.291 µM in the experiment on COLO 205 colon. The same compound showed a TGI in the experiment on SNB-75 CNS of 1.57 µM.
`CC1=CC(O)C(C(O)(C(F)(F)F)C(F)(F)F)C(C)(C)C1` (stereo not given): the TGI in the experiment on KM12 colon, in the experiment with RXF 393 renal, in the experiment with HCC-2998 colon, in the experiment with NCI/ADR-RES ovarian, with MDA-N and in the experiment with COLO 205 colon was more than 10 µM in each case. In the experiment on SNB-75 CNS, this compound yielded a TGI of more than 10 µM.
Take `CS(C)(=O)=Nn1c(=O)n2n(c1=O)C1c3ccccc3C2c2ccccc21`: the TGI in the experiment on MDA-MB-435, in the experiment with RXF 393 renal, with M14 melanoma, in the experiment on UO-31 renal, in the experiment with NCI/ADR-RES ovarian and with MDA-N was more than 100 µM throughout. Moreover, the TGI with COLO 205 colon is more than 100 µM.
Turning to `CC(C)CC1c2[nH]c3ccccc3c2C[C@H]2C(=O)NC(CCCCNC(=O)OC(C)(C)C)C(=O)N12` (stereo not given in full), the TGI in the experiment with MDA-MB-435 was more than 100 µM; in the experiment on KM12 colon, more than 100 µM; in the experiment with RXF 393 renal, 27.3 µM; with M14 melanoma it was more than 100 µM; in the experiment with UO-31 renal it was more than 100 µM; with NCI/ADR-RES ovarian it was more than 100 µM. For the same compound, the TGI was more than 100 µM in the experiment with MDA-N and 72.2 µM with COLO 205 colon.
For the compound `O=C(Nc1ccc(-n2ccc3c(NC(=O)c4ccccc4)nccc32)cc1)Nc1cccc(C(F)(F)F)c1`, the GI50 with MDA-MB-435 is 4.57 µM; in the experiment on KM12 colon, 0.41 µM; with RXF 393 renal it was 2.24 µM; in the experiment on M14 melanoma, 3.83 µM; in the experiment on HCC-2998 colon, 7.46 µM; in the experiment with UO-31 renal it was 13.4 µM. Besides, the GI50 in the experiment with NCI/ADR-RES ovarian is 10.9 µM; in the experiment on COLO 205 colon, 6.19 µM; with SNB-75 CNS, 7.67 µM. Further, the TGI in the experiment with MDA-MB-435 is 21.3 µM; in the experiment on KM12 colon it was 11.3 µM; in the experiment with RXF 393 renal, 7.64 µM; with M14 melanoma it was 15.7 µM; in the experiment on HCC-2998 colon, 22.4 µM; in the experiment on UO-31 renal it was 31.7 µM. The TGI with NCI/ADR-RES ovarian was 28.7 µM; in the experiment with COLO 205 colon it was 19.6 µM; with SNB-75 CNS, 23.3 µM.
In the case of `Cc1ccc(OCC2=NC3S/C(=C/c4ccc([N+](=O)[O-])o4)C(=O)N3N2)cc1` (stereo not given), the TGI in the experiment with MDA-MB-435 came to 19.8 µM; in the experiment with KM12 colon it was 32 µM; with RXF 393 renal it was 28.5 µM; with M14 melanoma it was 23.6 µM; in the experiment on UO-31 renal it was 34.8 µM; in the experiment on NCI/ADR-RES ovarian, 33.2 µM. The values for the TGI in the experiment on MDA-N, in the experiment with COLO 205 colon and with SNB-75 CNS were 20.7 µM, 11.6 µM and 30 µM, respectively.
For the compound `O=S(=O)(O)c1ccc2c(N=Nc3ccc(N=Nc4ccccc4)cc3)c(O)c(S(=O)(=O)O)cc2c1`, the TGI in the experiment with MDA-MB-435, in the experiment on KM12 colon, in the experiment with RXF 393 renal, with M14 melanoma, with HCC-2998 colon and in the experiment with UO-31 renal was more than 100 µM in each case. Moreover, the TGI in the experiment on NCI/ADR-RES ovarian, with MDA-N and in the experiment with COLO 205 colon was more than 100 µM throughout.
